Source: patent US20050277161A1, “Phosphopeptide antigens associated with MHC molecules” (priority 2004, published 2005)
Non-standard residues stand in square brackets, D forms with d. No end group written: not given here. pS = N[C@@H](COP(=O)(O)O)C(=O)O

Test system: COV413.AAD.A4 ovarian carcinoma, DM331.AAD.A4 and SLM2.AAD.A1 melanomas, MCF7.AAD.A2 and MDAMB231.AAD breast carcinomas, and JY EBV-BLCL
Assay: Recognition of naturally processed phosphopeptides on cancer cells by phosphopeptide-specific CTL (murine IFNγ ELISA)
Assay type: cell-based
Details: for recognition of the phosphopeptide on cancer cell lines by phosphopeptide-specific CTL (murine IFNγ in supernatant): murine CTL lines 50,000/well incubated 24 hours with 25,000 cancer cells/well, ovarian carcinoma, melanoma and breast carcinoma lines; for recognition of the phosphopeptide on the control cell line by phosphopeptide-specific CTL (murine IFNγ in supernatant): murine CTL lines 50,000/well incubated 24 hours with 25,000 cells/well, control JY EBV-BLCL
Method: FIG. 1, comprising FIGS. 1A and 1B, is a graphic illustration of the recognition of naturally processed and presented phosphorylated peptides on cancer cells by the phosphopeptide-specific CTL. Phosphopeptide-specific CTL were incubated with the following cancer cell lines or EBV-transformed B lymphoblastoid cell lines (BLCL): COV413.AAD.A4 ovarian carcinoma, DM331 .AAD.A4 and SLM2.AAD.A1 melanomas, MCF7.AAD.A2 and MDAMB231.AAD breast carcinomas, and JY EBV-BLCL. Supernatants were harvested and evaluated for the presence of murine IFNγ (produced by murine CTL lines). […] The ordinate indicates murine IFNγ in pg/ml. The abscissa indicates each cell line.
CTL specific for two of the antigen peptides were generated by long term culture with the peptides. Two CTL lines specific for the antigen peptide GLLGpSPVRA, lines 6850 and 6960, SEQ ID NO: 13, and two CTL lines specific for the antigen peptide RVApSPTSGV, SEQ ID NO: 14, lines 5183 and 63 were used to detect these two antigen peptides on cancer cells. The phosphopeptide-specific CTL (50,000 CTL/well) were incubated 24 hours with the following cancer cell lines or EBV-transformed B lymphoblastoid cell lines (BLCL) (25,000 cells/well): COV413.AAD.A4 ovarian carcinoma, DM331.AAD.A4 and SLM2.AAD.A1 melanomas, MCF7.AAD.A2 and MDAMB231.AAD breast carcinomas, and JY EBV-BLCL. Supernatants were harvested 24 hours later and evaluated for the presence of murine IFNγ (produced by murine CTL lines) by ELISA (eBioscience Ready-Set-go murine IFNγ ELISA kit).

Substance | recognition of the phosphopeptide on cancer cell lines by phosphopeptide-specific CTL (murine IFNγ in supernatant) | recognition of the phosphopeptide on the control cell line by phosphopeptide-specific CTL (murine IFNγ in supernatant)
GLLGpSPVRA (GLLG[pS]PVRA; listed as Homo sapiens) [phosphopeptide from CDC25b:p63; HLA-A2.1] | recognize the phosphopeptide on all the cancer cell lines | not the control cell line
RVApSPTSGV (RVA[pS]PTSGV; listed as Homo sapiens) [phosphopeptide from Insulin receptor substrate-2; HLA-A2.1] | recognize the phosphopeptide on all the cancer cell lines | not the control cell line
